Experimental data as given in patent publication US20210300873A1 (Clear Creek Bio, Inc., priority 2020, published 2021).
Counter-ions that a name gives are not always drawn. Like-named read-outs stand apart in the source and are kept apart here.

Format: physicochemical
Settings: sodium salt; for Stability of the polymorphic form (in words): storage, ambient condition (temperature and humidity) or closed cap

| Stability of the polymorphic form (in words) | Time after which the form converts to Pattern C (ambient condition) | Time after which the form converts to Pattern C (closed cap storage) | Structure (SMILES) | other results |
| --- | --- | --- | --- | --- |
| metastable |  |  | Cc1c(-c2ccc(-c3ccccc3F)cc2)nc2ccc(F)cc2c1C(=O)O [Pattern A, brequinar sodium salt] |  |
|  | Pattern C after 4 days at ambient |  | Cc1c(-c2ccc(-c3ccccc3F)cc2)nc2ccc(F)cc2c1C(=O)O [Pattern B, brequinar sodium salt] |  |
|  |  |  | Cc1c(-c2ccc(-c3ccccc3F)cc2)nc2ccc(F)cc2c1C(=O)O [Pattern C, 6-Flouro-2-(2′-fluoro-1,1′-biphenyl-4-yl)-3-methyl-4-quinolinecarboxylic acid sodium salt] | Stability of the polymorphic form (in words) (listed as polymorphic form C): stable |
| unstable | to Pattern C after 3 days at ambient |  | Cc1c(-c2ccc(-c3ccccc3F)cc2)nc2ccc(F)cc2c1C(=O)O [Pattern D, brequinar sodium salt] |  |
|  |  | Pattern C after 1 week (closed cap weeks | Cc1c(-c2ccc(-c3ccccc3F)cc2)nc2ccc(F)cc2c1C(=O)O [Pattern E, brequinar sodium salt] |  |
|  |  | Pattern C after 1 week (closed cap weeks | Cc1c(-c2ccc(-c3ccccc3F)cc2)nc2ccc(F)cc2c1C(=O)O [Pattern F, brequinar sodium salt] |  |
|  | to Pattern C after 2 weeks at ambient |  | Cc1c(-c2ccc(-c3ccccc3F)cc2)nc2ccc(F)cc2c1C(=O)O [Pattern G, brequinar sodium salt] |  |
| unstable | 2 days |  | Cc1c(-c2ccc(-c3ccccc3F)cc2)nc2ccc(F)cc2c1C(=O)O [Pattern I, brequinar sodium salt] |  |
|  |  | 2 weeks | Cc1c(-c2ccc(-c3ccccc3F)cc2)nc2ccc(F)cc2c1C(=O)O [Pattern J, brequinar sodium salt] |  |
